This test addresses b-Raf (V600E) (Homo sapiens (Human), UniProt P15056, V600E). The following applies: read-out: b-Raf IC-50; AlphaScreen, 60 min pre-incubation, reaction 3 hours at room temperature. Background: In Alpha technology, singlet oxygen from a donor bead excites a nearby acceptor bead.
Chain of b-Raf (V600E) (P15056 whole entry V600E): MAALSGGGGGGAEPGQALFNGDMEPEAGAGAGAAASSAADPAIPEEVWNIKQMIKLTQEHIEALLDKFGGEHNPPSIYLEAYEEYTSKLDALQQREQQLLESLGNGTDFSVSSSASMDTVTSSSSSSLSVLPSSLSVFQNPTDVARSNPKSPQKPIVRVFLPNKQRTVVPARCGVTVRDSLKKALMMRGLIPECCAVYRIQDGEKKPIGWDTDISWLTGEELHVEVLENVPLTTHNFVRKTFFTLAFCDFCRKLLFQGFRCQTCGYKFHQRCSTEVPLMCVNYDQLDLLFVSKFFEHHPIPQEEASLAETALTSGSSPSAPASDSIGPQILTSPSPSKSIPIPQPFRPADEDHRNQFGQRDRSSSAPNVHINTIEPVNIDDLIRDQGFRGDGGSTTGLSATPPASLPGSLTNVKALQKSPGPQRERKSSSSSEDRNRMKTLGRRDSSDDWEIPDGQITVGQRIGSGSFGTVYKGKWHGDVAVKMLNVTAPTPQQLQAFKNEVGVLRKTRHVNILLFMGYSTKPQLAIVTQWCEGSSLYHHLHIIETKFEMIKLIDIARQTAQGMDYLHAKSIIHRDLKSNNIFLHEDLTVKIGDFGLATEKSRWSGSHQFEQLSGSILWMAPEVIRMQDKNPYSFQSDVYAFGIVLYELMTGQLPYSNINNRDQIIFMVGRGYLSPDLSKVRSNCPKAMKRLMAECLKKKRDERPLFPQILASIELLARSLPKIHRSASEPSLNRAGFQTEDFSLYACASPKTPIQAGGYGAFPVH
Take `Cc1ncc(NC(=O)c2ccnc(C(C)(F)F)c2)cc1-c1cc(N2CCOCC2)nc(N2CC(C)(O)C2)c1` [Example 1105, 2-(1,1-difluoroethyl)-N-(2′-(3-hydroxy-3-methylazetidin-1-yl)-2-methyl-6′-morpholino-[3,4′-bipyridin]-5-yl)isonicotinamide]: the IC50 is 5.62 nM.

Regarding `Cc1ncc(NC(=O)c2ccnc(C(C)(C)F)c2)cc1-c1cc(N2CCOCC2)nc(N2CC(C)(O)C2)c1` [Example 1106, 2-(2-fluoropropan-2-yl)-N-(2′-(3-hydroxy-3-methylazetidin-1-yl)-2-methyl-6′-morpholino-[3,4′-bipyridin]-5-yl)isonicotinamide], the IC50 is 8.59 nM.

`Cc1ncc(NC(=O)c2cnnc(C(F)(F)F)c2)cc1-c1cc(N2CCOCC2)nc(N2CC(C)(O)C2)c1` [Example 1107, N-(2′-(3-hydroxy-3-methylazetidin-1-yl)-2-methyl-6′-morpholino-[3,4′-bipyridin]-5-yl)-6-(trifluoromethyl)pyridazine-4-carboxamide]: the IC50 was determined as 13.4 nM.

As for `Cc1ncc(NC(=O)c2ccnc(C(C)(C)C#N)c2)cc1-c1cc(N2CCOCC2)nc(N2CC(C)(O)C2)c1` [Example 1108, 2-(2-cyanopropan-2-yl)-N-(2′-(3-hydroxy-3-methylazetidin-1-yl)-2-methyl-6′-morpholino-[3,4′-bipyridin]-5-yl)isonicotinamide], the IC50 is 20.4 nM.

For `Cc1ncc(NC(=O)c2ccnc(C3(C#N)CC3)c2)cc1-c1cc(N2CCOCC2)nc(N2CC(C)(O)C2)c1` [Example 1109, 2-(1-cyanocyclopropyl)-N-(2′-(3-hydroxy-3-methylazetidin-1-yl)-2-methyl-6′-morpholino-[3,4′-bipyridin]-5-yl)isonicotinamide], the IC50 worked out at 8.02 nM.

Take `Cc1ccc(NC(=O)c2ccnc(C(C)(C)C#N)c2)cc1-c1cc(N2CCOCC2)nc(N2CC(C)(O)C2)c1` [Example 1110, 2-(2-cyanopropan-2-yl)-N-(3-(2-(3-hydroxy-3-methylazetidin-1-yl)-6-morpholinopyridin-4-yl)-4-methylphenyl)isonicotinamide]: the IC50 was 4.82 nM.

Take `Cc1ccc(NC(=O)c2ccnc(C3(C#N)CC3)c2)cc1-c1cc(N2CCOCC2)nc(N2CC(C)(O)C2)c1` [Example 1111, 2-(1-cyanocyclopropyl)-N-(3-(2-(3-hydroxy-3-methylazetidin-1-yl)-6-morpholinopyridin-4-yl)-4-methylphenyl)isonicotinamide]: the IC50 was determined as 2.09 nM.

Regarding `Cc1ccc(NC(=O)c2ccnc(C(F)(F)F)c2)cc1-c1cc(N2CCOCC2)nc(N2CCOCC2)c1` [Example 1112, N-(3-(2,6-dimorpholinopyridin-4-yl)-4-methylphenyl)-2-(trifluoromethyl)isonicotinamide], the IC50 stood at 0.83 nM.

Consider `Cc1ccc(NC(=O)c2ccnc(C(C)(C)C#N)c2)cc1-c1cc(N2CCOCC2)nc(N2CCOCC2)c1` [Example 1113, 2-(2-cyanopropan-2-yl)-N-(3-(2,6-dimorpholinopyridin-4-yl)-4-methylphenyl)isonicotinamide], for which the IC50 stood at 1.32 nM.

With `CCn1cc(C(=O)Nc2ccc(C)c(-c3cc(N4CCOCC4)nc(N4CCOCC4)c3)c2)cc(C(F)(F)F)c1=O` [Example 1114, N-(3-(2,6-dimorpholinopyridin-4-yl)-4-methylphenyl)-1-ethyl-6-oxo-5-(trifluoromethyl)-1,6-dihydropyridine-3-carboxamide], the IC50 is 3.14 nM.

In the case of `Cc1ccc(NC(=O)c2ccnc(C(F)F)c2)cc1-c1cc(N2CCOCC2)nc(N2CCOCC2)c1` [Example 1115, 2-(difluoromethyl)-N-(3-(2,6-dimorpholinopyridin-4-yl)-4-methylphenyl)isonicotinamide], the IC50 was determined as 0.65 nM.

In the case of `Cc1ccc(NC(=O)c2cccc(C(F)F)c2)cc1-c1cc(N2CCOCC2)nc(N2CCOCC2)c1` [Example 1116, 3-(difluoromethyl)-N-(3-(2,6-dimorpholinopyridin-4-yl)-4-methylphenyl)benzamide], the IC50 was 0.82 nM.

Regarding `Cc1ccc(NC(=O)c2ccnc(C(C)C)c2)cc1-c1cc(N2CCOCC2)nc(N2CCOCC2)c1` [Example 1117, N-(3-(2,6-dimorpholinopyridin-4-yl)-4-methylphenyl)-2-isopropylisonicotinamide], the IC50 turned out to be 1.31 nM.

As for `Cc1ccc(NC(=O)c2ccnc(S(C)(=O)=O)c2)cc1-c1cc(N2CCOCC2)nc(N2CCOCC2)c1` [Example 1118, N-(3-(2,6-dimorpholinopyridin-4-yl)-4-methylphenyl)-2-(methylsulfonyl)isonicotinamide], the IC50 came out at 1.02 nM.

With `Cc1ncc(NC(=O)c2ccnc(C(C)C)c2)cc1-c1cc(N2CCOCC2)nc(N2CCOCC2)c1` [Example 1119, 2-isopropyl-N-(2-methyl-2′,6′-dimorpholino-[3,4′-bipyridin]-5-yl)isonicotinamide], the IC50 was 2 nM.

With `Cc1ncc(NC(=O)c2ccnc(C(F)(F)F)c2)cc1-c1cc(N2CCOCC2)nc(N2CCOCC2)c1` [Example 1120, N-(2-methyl-2′,6′-dimorpholino-[3,4′-bipyridin]-5-yl)-2-(trifluoromethyl)isonicotinamide], the IC50 is 1.63 nM.

Regarding `Cc1ncc(NC(=O)c2ccnc(C(F)F)c2)cc1-c1cc(N2CCOCC2)nc(N2CCOCC2)c1` [Example 1122, 2-(difluoromethyl)-N-(2-methyl-2′,6′-dimorpholino-[3,4′-bipyridin]-5-yl)isonicotinamide], the IC50 came to 3.31 nM.

On to `Cc1ncc(NC(=O)c2ccnc(C(C)(C)C#N)c2)cc1-c1cc(N2CCOCC2)nc(N2CCOCC2)c1` [Example 1123, 2-(2-cyanopropan-2-yl)-N-(2-methyl-2′,6′-dimorpholino-[3,4′-bipyridin]-5-yl)isonicotinamide], for which the IC50 amounted to 10.8 nM.

For `Cc1ncc(NC(=O)c2ccnc(S(C)(=O)=O)c2)cc1-c1cc(N2CCOCC2)nc(N2CCOCC2)c1` [Example 1124, N-(2-methyl-2′,6′-dimorpholino-[3,4′-bipyridin]-5-yl)-2-(methylsulfonyl)isonicotinamide], the IC50 is 12.1 nM.

With `CCn1cc(C(=O)Nc2cnc(C)c(-c3cc(N4CCOCC4)nc(N4CCOCC4)c3)c2)cc(C(F)(F)F)c1=O` [Example 1125, 1-ethyl-N-(2-methyl-2′,6′-dimorpholino-[3,4′-bipyridin]-5-yl)-6-oxo-5-(trifluoromethyl)-1,6-dihydropyridine-3-carboxamide], the IC50 was found to be 10 nM.

As for `Cc1ccc(NC(=O)c2ccnc(C(F)(F)F)c2)cc1-c1cc(-c2c(C)n[nH]c2C)nc(N2CCOCC2)c1` [Example 1127, N-(3-(2-(3,5-dimethyl-1H-pyrazol-4-yl)-6-morpholinopyridin-4-yl)-4-methylphenyl)-2-(trifluoromethyl)isonicotinamide], the IC50 was found to be 1.48 nM.

As for `Cc1ccc(NC(=O)c2ccnc(C(F)(F)F)c2)cc1-c1cc(N2CCNCC2)nc(N2CCOCC2)c1` [Example 1128, N-(4-methyl-3-(2-morpholino-6-(piperazin-1-yl)pyridin-4-yl)phenyl)-2-(trifluoromethyl)isonicotinamide], the IC50 was 2.16 nM.

For the compound `Cc1ncc(NC(=O)c2cccc(C(F)(F)F)c2)cc1-c1cc(N2CCNCC2)nc(N2CCOCC2)c1` [Example 1129, N-(2-methyl-2′-morpholino-6′-(piperazin-1-yl)-[3,4′-bipyridin]-5-yl)-3-(trifluoromethyl)benzamide], the IC50 is 4.64 nM.

On to `Cc1ccc(NC(=O)c2ccnc(C(F)(F)F)c2)cc1-c1cc(N2CCOCC2)nc(N2CCC(O)C2)c1` (centres unmarked) [Example 1130, N-(3-(2-(3-hydroxypyrrolidin-1-yl)-6-morpholinopyridin-4-yl)-4-methylphenyl)-2-(trifluoromethyl)isonicotinamide], for which the IC50 stood at 2.24 nM.

Consider `Cc1ncc(NC(=O)c2cccc(C(F)(F)F)c2)cc1-c1cc(N2CCOCC2)nc(N2CCC(O)C2)c1` (centres unmarked) [Example 1131, N-(2′-(3-hydroxypyrrolidin-1-yl)-2-methyl-6′-morpholino-[3,4′-bipyridin]-5-yl)-3-(trifluoromethyl)benzamide], for which the IC50 was 2.34 nM.

On to `CCOc1cc(-c2cc(NC(=O)c3ccnc(C(F)(F)F)c3)ccc2C)cc(N2CCOCC2)n1` [Example 1133, N-(3-(2-ethoxy-6-morpholinopyridin-4-yl)-4-methylphenyl)-2-(trifluoromethyl)isonicotinamide], for which the IC50 was 1.29 nM.

Regarding `Cc1ccc(NC(=O)c2cccc(C(F)(F)F)c2)cc1-c1ccnc(N2CCOCC2=O)c1` [Example 1134], the IC50 was 4.99 nM.

On to `Cc1ncc(NC(=O)c2cccc(C(F)(F)F)c2)cc1-c1ccnc(N2CCOCC2=O)c1` [Example 1135, N-(2-methyl-2′-(3-oxomorpholino)-[3,4′-bipyridin]-5-yl)-3-(trifluoromethyl)benzamide], for which the IC50 came to 43 nM.

In the case of `Cc1ncc(NC(=O)c2ccnc(C(C)C)c2)cc1-c1ccnc(N2CCOCC2)c1` [Example 1136, 2-isopropyl-N-(2-methyl-2′-morpholino-[3,4′-bipyridin]-5-yl)isonicotinamide], the IC50 was determined as 5.03 nM.

`Cc1ncc(NC(=O)c2ccnc(C(C)(C)F)c2)cc1-c1cc(NCCO)nc(N2CCOC[C@H]2C)c1` [Example 1138, (R)-2-(2-fluoropropan-2-yl)-N-(2′-((2-hydroxyethyl)amino)-2-methyl-6′-(3-methylmorpholino)-[3,4′-bipyridin]-5-yl)isonicotinamide]: the IC50 is 27.8 nM.

As to `Cc1ncc(NC(=O)c2ccnc(C(C)(F)F)c2)cc1-c1cc(NCCO)nc(N2CCOC[C@H]2C)c1` [Example 1139, (R)-2-(1,1-difluoroethyl)-N-(2′-((2-hydroxyethyl)amino)-2-methyl-6′-(3-methylmorpholino)-[3,4′-bipyridin]-5-yl)isonicotinamide], the IC50 amounted to 14.3 nM.

With `Cc1ncc(NC(=O)c2ccnc(C(F)(F)F)c2)cc1-c1cc(NCCO)nc(N2CCOC[C@H]2C)c1` [Example 1140, (R)—N-(2′-((2-hydroxyethyl)amino)-2-methyl-6′-(3-methylmorpholino)-[3,4′-bipyridin]-5-yl)-2-(trifluoromethyl)isonicotinamide], the IC50 worked out at 13.4 nM.

These data come from patent publication US9694016B2 (Novartis AG, priority 2013, dated 2017).
